Publication PMC5540273, “Progress towards a public chemogenomic set for protein kinases and a call for contributions” (PLoS ONE, 2017)

Legend:
CDK4 = CDK4 (Homo sapiens, UniProt P11802); assay: KINOMEscan competition binding; conditions: read-out: %Inh CDK4
EPHA6 = molecular target: T1, EPHA6 (Homo sapiens, UniProt Q9UF33); assay: KINOMEscan competition binding; conditions: read-out: %Inh EPHA6
T1 sequence (Q9UF33 23-1036): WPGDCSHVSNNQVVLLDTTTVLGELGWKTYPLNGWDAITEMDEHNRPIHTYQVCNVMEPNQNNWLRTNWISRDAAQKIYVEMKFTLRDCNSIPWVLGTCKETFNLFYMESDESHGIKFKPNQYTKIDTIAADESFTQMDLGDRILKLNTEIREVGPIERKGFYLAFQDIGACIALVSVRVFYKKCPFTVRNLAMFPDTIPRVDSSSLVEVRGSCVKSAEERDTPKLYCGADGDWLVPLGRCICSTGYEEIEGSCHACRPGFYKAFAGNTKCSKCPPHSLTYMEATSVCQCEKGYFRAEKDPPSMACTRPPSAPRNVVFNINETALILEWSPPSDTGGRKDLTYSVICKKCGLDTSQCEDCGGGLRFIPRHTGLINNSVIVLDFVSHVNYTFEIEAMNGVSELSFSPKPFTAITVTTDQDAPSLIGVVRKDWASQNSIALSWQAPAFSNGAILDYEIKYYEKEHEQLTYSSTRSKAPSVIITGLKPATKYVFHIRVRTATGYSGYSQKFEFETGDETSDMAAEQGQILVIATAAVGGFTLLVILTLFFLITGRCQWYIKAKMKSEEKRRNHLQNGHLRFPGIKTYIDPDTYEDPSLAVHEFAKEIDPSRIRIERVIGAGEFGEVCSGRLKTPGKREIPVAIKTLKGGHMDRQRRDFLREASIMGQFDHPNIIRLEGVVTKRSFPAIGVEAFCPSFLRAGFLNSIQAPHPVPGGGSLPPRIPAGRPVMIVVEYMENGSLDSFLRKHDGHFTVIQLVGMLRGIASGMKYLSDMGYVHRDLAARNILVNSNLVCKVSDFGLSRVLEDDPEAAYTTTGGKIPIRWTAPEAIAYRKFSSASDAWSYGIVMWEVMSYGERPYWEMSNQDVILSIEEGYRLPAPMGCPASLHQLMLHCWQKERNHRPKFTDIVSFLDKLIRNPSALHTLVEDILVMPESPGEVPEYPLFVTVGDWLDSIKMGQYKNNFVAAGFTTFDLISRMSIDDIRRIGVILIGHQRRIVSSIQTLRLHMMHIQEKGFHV

CDK4, sequence (P11802 whole entry): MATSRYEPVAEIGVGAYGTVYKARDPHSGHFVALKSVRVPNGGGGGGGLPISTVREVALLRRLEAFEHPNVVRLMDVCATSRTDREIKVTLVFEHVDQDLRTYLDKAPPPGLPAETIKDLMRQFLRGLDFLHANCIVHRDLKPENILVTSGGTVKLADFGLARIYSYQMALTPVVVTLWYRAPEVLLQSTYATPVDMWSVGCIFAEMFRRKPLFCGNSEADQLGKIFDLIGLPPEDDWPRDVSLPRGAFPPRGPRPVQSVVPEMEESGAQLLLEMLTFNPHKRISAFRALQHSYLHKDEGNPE

| SMILES | inhibition at 1 µM (CDK4) | inhibition at 1 µM (EPHA6) |
| --- | --- | --- |
| Cn1cc(-c2cnc(N)c3c(-c4ccc5c(c4)CCN5C(=O)Cc4ccccc4)csc23)cn1 [UNC10225012A] | 0% | 11% |
| CS(=O)(=O)Cc1ccc(Nc2nccc(-c3c(-c4cccc(NC(=O)C5CCCCC5)c4)nn4ncccc34)n2)cc1 [UNC10225159A] | 18% | 2% |
| Cc1ccc(NC(=O)Nc2cccc(C(F)(F)F)c2)cc1 [UNC10225187A] | 0% | 0% |
| COc1cccc(OC)c1C(=O)Nc1cccc(-c2nn3ccccc3c2-c2ccnc(Nc3cccc(F)c3)n2)c1 [UNC10225310A] | 0% | 11% |
| O=c1cc(N2CCOCC2)nc2n(Cc3cccc(Cl)c3Cl)c(C3CC3)nn12 [UNC10225469A] | 0% | 0% |
